Test results reported in US8536332B2, “Modulating signal transduction pathways with substituted pyridol [2,3-b] pyrazines” (Aeterna Zentaris GmbH, priority 2007, dated 2013).

Row | Structure (SMILES) | melting point [°C]
1 | COc1ccc(-c2ccc3ncc(NC(=O)c4ccccc4)nc3n2)cc1OC [Compound 660, N-[6-(3,4-Dimethoxy-phenyl)-pyrido[2,3-b]pyrazin-3-yl]-benzamide] | 168 to 170
2 | COc1cc(Nc2cnc3ccc(NC(=S)NC4CCCCC4)nc3n2)cc(OC)c1OC [Compound 690, 1-Cyclohexyl-3-[3-(3,4,5-trimethoxy-phenylamino)-pyrido[2,3-b]pyrazin-6-yl]-thiourea] | 248
3 | COc1cc(Nc2cnc3ccc(NC(=S)NC4CCCCCCC4)nc3n2)cc(OC)c1OC [Compound 691, 1-Cyclooctyl-3-[3-(3,4,5-trimethoxy-phenylamino)-pyrido[2,3-b]pyrazin-6-yl]-thiourea] | 250
4 | COc1cc(Nc2cnc3ccc(NC(=S)Nc4c(C)noc4C)nc3n2)cc(OC)c1OC [Compound 695, 1-(3,5-Dimethyl-isoxazol-4-yl)-3-[3-(3,4,5-trimethoxy-phenylamino)-pyrido[2,3-b]pyrazin-6-yl]-thiourea] | 247
5 | COc1cc(Nc2cnc3ccc(NC(=S)NCCc4ccccc4)nc3n2)cc(OC)c1OC [Compound 699, 1-Phenethyl-3-[3-(3,4,5-trimethoxy-phenylamino)-pyrido[2,3-b]pyrazin-6-yl]-thiourea] | 197 to 200
6 | COc1cc(Nc2cnc3ccc(NC(=S)NCCN4CCCCC4)nc3n2)cc(OC)c1OC [Compound 700, 1-(2-Piperidin-1-yl-ethyl)-3-[3-(3,4,5-trimethoxy-phenylamino)-pyrido[2,3-b]pyrazin-6-yl]-thiourea] | 206

Now from value to compound:

Row | melting point [°C] | Structure (SMILES)
7 | 258 to 261 | CNC(=S)Nc1ccc2ncc(Nc3cc(OC)c(OC)c(OC)c3)nc2n1 [Compound 692, 1-Methyl-3-[3-(3,4,5-trimethoxy-phenylamino)-pyrido[2,3-b]pyrazin-6-yl]-thiourea]
8 | 230 to 234 | C=CCNC(=S)Nc1ccc2ncc(Nc3cc(OC)c(OC)c(OC)c3)nc2n1 [Compound 693, 1-Allyl-3-[3-(3,4,5-trimethoxy-phenylamino)-pyrido[2,3-b]pyrazin-6-yl]-thiourea]
9 | 218 to 220 | COc1cc(Nc2cnc3ccc(NC(=S)NC(C)(C)C)nc3n2)cc(OC)c1OC [Compound 694, 1-tert-Butyl-3-[3-(3,4,5-trimethoxy-phenylamino)-pyrido[2,3-b]pyrazin-6-yl]-thiourea]
10 | 347 | COc1cc(Nc2cnc3ccc(NC(=S)NCC4CCCCC4)nc3n2)cc(OC)c1OC [Compound 696, 1-Cyclohexylmethyl-3-[3-(3,4,5-trimethoxy-phenylamino)-pyrido[2,3-b]pyrazin-6-yl]-thiourea]
11 | 250 to 252 | COc1cc(Nc2cnc3ccc(NC(=S)NCc4ccccc4)nc3n2)cc(OC)c1OC [Compound 697, 1-Benzyl-3-[3-(3,4,5-trimethoxy-phenylamino)-pyrido[2,3-b]pyrazin-6-yl]-thiourea]
12 | 248 to 250 | COc1cc(Nc2cnc3ccc(NC(=S)NCc4ccc(C)cc4)nc3n2)cc(OC)c1OC [Compound 698, 1-(4-Methyl-benzyl)-3-[3-(3,4,5-trimethoxy-phenylamino)-pyrido[2,3-b]pyrazin-6-yl]-thiourea]
13 | 255 | COc1cc(Nc2cnc3ccc(NC(=S)NCc4ccc(F)cc4)nc3n2)cc(OC)c1OC [Compound 701, 1-(4-Fluoro-benzyl)-3-[3-(3,4,5-trimethoxy-phenylamino)-pyrido[2,3-b]pyrazin-6-yl]-thiourea]
14 | 210 | CCCCCNC(=S)Nc1ccc2ncc(Nc3cc(OC)c(OC)c(OC)c3)nc2n1 [Compound 702, 1-Pentyl-3-[3-(3,4,5-trimethoxy-phenylamino)-pyrido[2,3-b]pyrazin-6-yl]-thiourea]
15 | 196 | COc1cc(Nc2cnc3ccc(NC(=S)NCCN4CCOCC4)nc3n2)cc(OC)c1OC [Compound 703, 1-(2-Morpholin-4-yl-ethyl)-3-[3-(3,4,5-trimethoxy-phenylamino)-pyrido[2,3-b]pyrazin-6-yl]-thiourea]
